From the kinase profiling compilation of Christmann-Franck et al. (2016)

Tests used:
KDR (human) = KDR (human) (UniProt P35968); experiment: HTRF
CHEK2 (human) = CHEK2 (human) (UniProt O96017); experiment: Flashplate
MARK3 (human) = MARK3 (human) (UniProt P27448); experiment: Flashplate
SGK1 (human) = SGK1 (human) (UniProt O00141); experiment: Flashplate
CDK5 (human) = CDK5 (human) (UniProt Q00535); experiment: Flashplate
DYRK1A (human) = DYRK1A (human) (UniProt Q13627); experiment: Flashplate
CDC7 (human) = CDC7 (human) (UniProt O00311); experiment: Flashplate
CDC7 (human), sequence (O00311 whole entry, looked up): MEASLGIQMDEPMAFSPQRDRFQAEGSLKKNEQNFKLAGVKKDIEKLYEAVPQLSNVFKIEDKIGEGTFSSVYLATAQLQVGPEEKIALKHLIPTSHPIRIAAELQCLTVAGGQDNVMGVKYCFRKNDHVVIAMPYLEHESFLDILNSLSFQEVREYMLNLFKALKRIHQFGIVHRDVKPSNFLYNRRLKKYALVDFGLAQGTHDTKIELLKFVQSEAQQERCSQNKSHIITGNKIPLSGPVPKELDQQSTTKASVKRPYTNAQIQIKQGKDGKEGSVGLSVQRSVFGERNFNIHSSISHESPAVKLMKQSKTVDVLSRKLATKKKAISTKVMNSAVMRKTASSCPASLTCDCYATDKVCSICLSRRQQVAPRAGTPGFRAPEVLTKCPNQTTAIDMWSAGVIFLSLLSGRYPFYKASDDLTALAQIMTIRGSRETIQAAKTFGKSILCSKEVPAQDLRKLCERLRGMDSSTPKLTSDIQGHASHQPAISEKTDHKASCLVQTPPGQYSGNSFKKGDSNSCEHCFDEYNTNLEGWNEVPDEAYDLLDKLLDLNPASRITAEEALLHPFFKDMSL

CDK19 (human) = CDK19 (human) (UniProt Q9BWU1); experiment: Flashplate
CDK19 (human), sequence (Q9BWU1 whole entry, looked up): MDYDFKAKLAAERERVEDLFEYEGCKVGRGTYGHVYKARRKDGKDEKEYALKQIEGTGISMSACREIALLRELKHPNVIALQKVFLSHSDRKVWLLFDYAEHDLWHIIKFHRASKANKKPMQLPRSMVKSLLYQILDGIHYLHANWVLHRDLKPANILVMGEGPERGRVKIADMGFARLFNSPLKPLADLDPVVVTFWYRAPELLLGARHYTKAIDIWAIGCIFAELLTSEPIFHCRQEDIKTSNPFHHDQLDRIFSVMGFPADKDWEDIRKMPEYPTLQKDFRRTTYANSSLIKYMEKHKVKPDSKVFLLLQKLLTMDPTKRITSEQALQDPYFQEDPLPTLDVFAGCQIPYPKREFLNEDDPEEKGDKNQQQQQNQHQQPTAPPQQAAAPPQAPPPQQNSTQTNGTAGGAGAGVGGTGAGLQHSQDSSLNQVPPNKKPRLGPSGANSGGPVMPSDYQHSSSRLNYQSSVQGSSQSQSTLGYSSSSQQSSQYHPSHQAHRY

PLK3 (human) = PLK3 (human) (UniProt Q9H4B4); experiment: Flashplate
PLK3 (human), sequence (Q9H4B4 whole entry, looked up): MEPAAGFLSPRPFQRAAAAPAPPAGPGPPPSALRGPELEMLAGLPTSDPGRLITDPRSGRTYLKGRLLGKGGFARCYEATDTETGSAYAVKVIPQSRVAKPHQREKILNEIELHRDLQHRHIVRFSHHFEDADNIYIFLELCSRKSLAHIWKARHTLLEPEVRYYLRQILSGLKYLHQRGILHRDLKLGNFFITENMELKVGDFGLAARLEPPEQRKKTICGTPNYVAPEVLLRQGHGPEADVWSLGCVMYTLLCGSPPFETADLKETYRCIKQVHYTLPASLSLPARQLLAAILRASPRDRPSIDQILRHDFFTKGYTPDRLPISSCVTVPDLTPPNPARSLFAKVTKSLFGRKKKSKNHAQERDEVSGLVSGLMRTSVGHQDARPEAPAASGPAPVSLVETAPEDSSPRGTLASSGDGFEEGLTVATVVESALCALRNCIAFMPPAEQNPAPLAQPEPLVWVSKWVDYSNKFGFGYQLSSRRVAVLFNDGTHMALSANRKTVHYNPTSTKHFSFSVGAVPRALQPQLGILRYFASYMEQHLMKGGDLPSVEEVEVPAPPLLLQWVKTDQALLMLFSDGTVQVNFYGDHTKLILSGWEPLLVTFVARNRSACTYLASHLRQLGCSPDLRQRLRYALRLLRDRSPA

CLK4 (human) = CLK4 (human) (UniProt Q9HAZ1); experiment: Flashplate
CLK4 (human), sequence (Q9HAZ1 whole entry, looked up): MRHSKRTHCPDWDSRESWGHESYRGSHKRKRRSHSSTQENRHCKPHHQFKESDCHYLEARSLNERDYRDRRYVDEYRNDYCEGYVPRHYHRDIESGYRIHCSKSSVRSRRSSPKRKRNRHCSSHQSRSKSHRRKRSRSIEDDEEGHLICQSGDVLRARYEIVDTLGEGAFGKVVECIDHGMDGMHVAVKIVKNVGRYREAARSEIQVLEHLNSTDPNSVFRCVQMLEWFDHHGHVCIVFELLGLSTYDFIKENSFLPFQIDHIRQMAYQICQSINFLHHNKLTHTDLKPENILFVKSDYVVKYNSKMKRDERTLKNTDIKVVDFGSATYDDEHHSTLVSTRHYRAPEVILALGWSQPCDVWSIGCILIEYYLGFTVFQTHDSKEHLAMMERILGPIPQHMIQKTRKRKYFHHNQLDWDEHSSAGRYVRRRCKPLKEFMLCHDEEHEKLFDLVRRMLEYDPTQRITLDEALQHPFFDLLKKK

SGK1 (human), sequence (O00141 whole entry, looked up): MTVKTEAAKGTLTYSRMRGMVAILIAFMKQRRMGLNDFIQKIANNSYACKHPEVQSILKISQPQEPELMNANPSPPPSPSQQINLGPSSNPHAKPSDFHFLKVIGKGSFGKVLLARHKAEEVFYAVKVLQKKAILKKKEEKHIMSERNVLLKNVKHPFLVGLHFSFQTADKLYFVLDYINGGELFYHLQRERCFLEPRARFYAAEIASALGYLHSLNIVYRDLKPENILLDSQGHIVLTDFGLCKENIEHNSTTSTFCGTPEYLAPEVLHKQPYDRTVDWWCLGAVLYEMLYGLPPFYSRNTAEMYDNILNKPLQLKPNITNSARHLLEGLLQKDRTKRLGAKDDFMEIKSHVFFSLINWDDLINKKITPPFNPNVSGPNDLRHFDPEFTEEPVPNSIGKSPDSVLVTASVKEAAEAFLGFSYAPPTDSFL
KDR (human), sequence (P35968 whole entry, looked up): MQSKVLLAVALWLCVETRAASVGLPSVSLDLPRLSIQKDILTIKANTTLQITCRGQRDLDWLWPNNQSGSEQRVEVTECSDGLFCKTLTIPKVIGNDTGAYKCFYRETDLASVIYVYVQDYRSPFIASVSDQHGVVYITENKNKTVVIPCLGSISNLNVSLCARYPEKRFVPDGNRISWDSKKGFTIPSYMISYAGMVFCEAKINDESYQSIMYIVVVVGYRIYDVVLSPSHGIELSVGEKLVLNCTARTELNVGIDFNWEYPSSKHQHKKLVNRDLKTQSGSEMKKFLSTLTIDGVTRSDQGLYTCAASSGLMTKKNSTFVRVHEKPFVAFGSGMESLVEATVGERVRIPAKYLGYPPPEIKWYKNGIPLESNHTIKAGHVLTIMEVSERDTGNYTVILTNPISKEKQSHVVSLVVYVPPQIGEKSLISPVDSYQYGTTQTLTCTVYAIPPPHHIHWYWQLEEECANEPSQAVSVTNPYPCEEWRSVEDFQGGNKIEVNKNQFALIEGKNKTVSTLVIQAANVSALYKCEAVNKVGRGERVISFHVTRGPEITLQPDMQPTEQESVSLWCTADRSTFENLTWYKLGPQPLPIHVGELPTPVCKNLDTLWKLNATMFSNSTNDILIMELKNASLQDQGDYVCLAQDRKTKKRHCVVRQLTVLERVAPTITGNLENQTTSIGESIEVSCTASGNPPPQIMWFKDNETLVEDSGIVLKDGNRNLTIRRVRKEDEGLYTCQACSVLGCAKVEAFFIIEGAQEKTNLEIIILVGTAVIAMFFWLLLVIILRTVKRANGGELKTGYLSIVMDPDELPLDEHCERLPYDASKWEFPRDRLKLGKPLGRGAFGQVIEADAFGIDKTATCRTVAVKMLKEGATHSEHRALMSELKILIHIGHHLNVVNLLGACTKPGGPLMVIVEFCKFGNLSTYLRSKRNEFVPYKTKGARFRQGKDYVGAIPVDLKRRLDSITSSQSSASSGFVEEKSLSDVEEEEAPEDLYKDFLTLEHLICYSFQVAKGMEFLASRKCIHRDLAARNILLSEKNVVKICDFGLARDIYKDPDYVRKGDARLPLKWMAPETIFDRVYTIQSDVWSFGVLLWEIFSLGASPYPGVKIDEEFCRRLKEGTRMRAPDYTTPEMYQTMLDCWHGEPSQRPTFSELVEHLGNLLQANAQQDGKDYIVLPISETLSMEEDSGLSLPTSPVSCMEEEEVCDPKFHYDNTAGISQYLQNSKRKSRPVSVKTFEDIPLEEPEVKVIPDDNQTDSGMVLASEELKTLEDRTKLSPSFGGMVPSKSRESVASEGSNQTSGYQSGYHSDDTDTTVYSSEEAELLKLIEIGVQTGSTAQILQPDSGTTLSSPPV
MARK3 (human), sequence (P27448 whole entry, looked up): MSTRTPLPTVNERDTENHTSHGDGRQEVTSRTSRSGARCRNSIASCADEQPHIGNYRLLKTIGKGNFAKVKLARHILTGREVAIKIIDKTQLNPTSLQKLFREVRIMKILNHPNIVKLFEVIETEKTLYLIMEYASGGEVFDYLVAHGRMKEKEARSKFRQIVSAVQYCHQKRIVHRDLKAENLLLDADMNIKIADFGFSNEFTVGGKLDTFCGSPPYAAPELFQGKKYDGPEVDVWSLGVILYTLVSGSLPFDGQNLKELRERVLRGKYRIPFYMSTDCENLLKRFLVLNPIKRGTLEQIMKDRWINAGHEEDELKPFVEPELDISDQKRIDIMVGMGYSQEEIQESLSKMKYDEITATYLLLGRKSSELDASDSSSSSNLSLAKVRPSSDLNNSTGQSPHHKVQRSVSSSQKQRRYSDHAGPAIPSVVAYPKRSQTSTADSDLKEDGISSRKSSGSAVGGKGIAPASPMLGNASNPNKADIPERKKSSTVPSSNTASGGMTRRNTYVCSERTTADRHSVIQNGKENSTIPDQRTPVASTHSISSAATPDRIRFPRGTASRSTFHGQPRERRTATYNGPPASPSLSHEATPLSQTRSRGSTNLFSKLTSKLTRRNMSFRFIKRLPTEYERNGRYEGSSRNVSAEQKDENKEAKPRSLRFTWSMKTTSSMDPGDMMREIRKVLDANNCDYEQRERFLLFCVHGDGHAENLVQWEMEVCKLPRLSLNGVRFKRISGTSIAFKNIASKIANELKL
CDK5 (human), sequence (Q00535 whole entry, looked up): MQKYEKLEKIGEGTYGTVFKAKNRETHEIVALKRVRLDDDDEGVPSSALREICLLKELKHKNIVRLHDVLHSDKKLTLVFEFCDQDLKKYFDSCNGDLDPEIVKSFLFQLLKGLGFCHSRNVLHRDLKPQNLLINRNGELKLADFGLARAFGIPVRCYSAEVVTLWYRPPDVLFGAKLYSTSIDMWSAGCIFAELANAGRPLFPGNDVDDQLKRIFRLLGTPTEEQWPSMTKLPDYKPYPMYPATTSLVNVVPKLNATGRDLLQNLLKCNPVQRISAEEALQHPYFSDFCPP

Ki (SGK1 (human)) [µM] | SMILES | other results
3.98 | CCn1c(=O)/c(=C\Nc2ccccc2)s/c1=C(/C#N)C(=O)O | Ki (KDR (human)): 3.98 µM; Ki (CHEK2 (human)): 3.98 µM; Ki (MARK3 (human)): 3.98 µM
– | O=C(O)c1ccccc1Nc1ncnc(Nc2ccc3cn[nH]c3c2)n1 | Ki (CDK5 (human)): 0.251 µM; Ki (DYRK1A (human)): 0.251 µM
– | O=[N+]([O-])c1ccc(-n2nc(-c3ccncc3)cc2O)cc1 | Ki (CDC7 (human)): 0.501 µM; Ki (CDK19 (human)): > 100 µM
> 10 | COc1cc2ncn(-c3cc(OCc4ccccc4C(F)(F)F)c(C(N)=O)s3)c2cc1OC | Ki (PLK3 (human)): 0.00794 µM
– | Oc1cc(Cc2nc3ccccc3[nH]2)nn1-c1ccccc1 | Ki (CDK19 (human)): > 100 µM; Ki (CLK4 (human)): 1.26 µM
– | CN(C)c1ccc(-c2c(-c3ccc4[nH]nc(N)c4c3)nnn2Cc2ccccc2)cc1 | Ki (CDC7 (human)): 0.000398 µM
> 6.31 | CCOc1nc(C(=O)NCc2ccc(S(C)(=O)=O)cc2)cc(N)c1C#N | –
0.316 | NCC(NC(=O)c1ccc(-c2ccncc2)cc1)c1ccccc1 (stereo not drawn) | –
0.316 | CCn1c(C)c(-c2ccnc(Nc3cccc(OC)c3)n2)sc1=O | –
1 | O=C(NCc1ccc(Br)cc1)Nc1ccc2[nH]ncc2c1 | –
> 10 | O=C1Nc2cc(CCOc3ccc(N4CCOCC4)cc3)ccc2Nc2cc(-c3cn(Cc4cc(F)c(F)c(F)c4)c4cnccc34)ccc21 | –
3.16 | COc1cc(/C=C2/SC(=S)NC2=O)ccc1O | –
> 10 | Cc1ccc(NC(=O)Nc2ccc(-c3csc4ncnc(N)c34)cc2)cc1C | –
5.01 | O=C1NCCc2[nH]c(-c3ccncc3)cc21 | –
> 10 | C#Cc1cccc(Nc2ncnc3cc(OCCOC)c(OCCOC)cc23)c1 | –
> 10 | N[C@@H](COCc1ccccc1)COc1cncc(/C=C/c2ccncc2)c1 | –
> 10 | N#Cc1ncc2nc1OCCCCCOc1cc(OCCCO)c(Cl)cc1NC(=O)N2 | –
> 10 | C/C(=N\NC(=O)c1nnn(-c2nonc2N)c1-c1ccccc1)c1ccco1 | –
> 10 | CNS(=O)(=O)c1ccccc1Nc1nc(Nc2cc(N3CCN(C(C)=O)CC3)ccc2OC)ncc1Br | –
> 10 | O=C(NNC(=S)Nc1ccc(F)cc1)C(O)(c1ccccc1)c1ccccc1 | –
> 10 | O=C1NCCc2[nH]c(-c3ccnc(-c4ccccc4F)c3)cc21 | –
> 10 | O=C1NC(=O)C(c2cnc3ccccn23)=C1c1cn2c3c(cccc13)CN(C(=O)N1CCOCC1)CC2 | –
> 10 | CCOc1nc(C(=O)NCc2ccncc2)cc(N)c1C#N | –
> 10 | O=C(Nc1cccc(C(F)(F)F)n1)Nc1ccnc2cc(C(F)(F)F)ccc12 | –
> 10 | OCCNc1cc2cc(-c3ccncc3)ccc2cn1 | –

SMILES | Ki (SGK1 (human)) [µM] | other results
N[C@H](COc1cncc(-c2cc3ccncc3s2)c1)Cc1c[nH]c2ccccc12 | 0.0501 | –
